Patent US20120245137A1 (Zalicus Pharmaceuticals Ltd., priority 2009, published 2012)
Like-named read-outs stand apart in the source and are kept apart here.

How the values were obtained:
Format in all cases: cell-based
[1] = target: human α1G T-type channels (Homo sapiens, UniProt O43497); experiment: T-type calcium channel block, whole cell patch clamp, α1G; settings: HEK cells stably expressing human α1G; mainly non-inactivated protocol; values above 10,000 nM represented as 10000
Summary of the method: (§1)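 Blockade of T-type current was measured in human α1G- or α1H-expressing HEK 293 cells using whole-cell recording with ~5 MΩ pipettes. Test compounds, dissolved in external solution containing 0.1-0.01% DMSO, were applied close to the cell, and block was examined under both non-inactivating and inactivating voltage protocols.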

[2] = target: human α1H T-type channels (Homo sapiens, UniProt O95180); experiment: T-type calcium channel block, whole cell patch clamp, α1H; settings: HEK cells stably expressing human α1H; mainly non-inactivated protocol; values above 10,000 nM represented as 10000
Summary of the method: as §1

[3] = target: N-type calcium channel subunits (α1B, α2δ, and β3a) (Homo sapiens, UniProt Q00975); experiment: Block of Cav2.2 channel, whole cell voltage clamp, manual and PatchXpress; settings: Table 5; table follows Assay Example 3 (whole cell voltage clamp / PatchXpress); assay not given
Chain of N-type calcium channel subunits (α1B, α2δ, and β3a) (Q00975 whole entry): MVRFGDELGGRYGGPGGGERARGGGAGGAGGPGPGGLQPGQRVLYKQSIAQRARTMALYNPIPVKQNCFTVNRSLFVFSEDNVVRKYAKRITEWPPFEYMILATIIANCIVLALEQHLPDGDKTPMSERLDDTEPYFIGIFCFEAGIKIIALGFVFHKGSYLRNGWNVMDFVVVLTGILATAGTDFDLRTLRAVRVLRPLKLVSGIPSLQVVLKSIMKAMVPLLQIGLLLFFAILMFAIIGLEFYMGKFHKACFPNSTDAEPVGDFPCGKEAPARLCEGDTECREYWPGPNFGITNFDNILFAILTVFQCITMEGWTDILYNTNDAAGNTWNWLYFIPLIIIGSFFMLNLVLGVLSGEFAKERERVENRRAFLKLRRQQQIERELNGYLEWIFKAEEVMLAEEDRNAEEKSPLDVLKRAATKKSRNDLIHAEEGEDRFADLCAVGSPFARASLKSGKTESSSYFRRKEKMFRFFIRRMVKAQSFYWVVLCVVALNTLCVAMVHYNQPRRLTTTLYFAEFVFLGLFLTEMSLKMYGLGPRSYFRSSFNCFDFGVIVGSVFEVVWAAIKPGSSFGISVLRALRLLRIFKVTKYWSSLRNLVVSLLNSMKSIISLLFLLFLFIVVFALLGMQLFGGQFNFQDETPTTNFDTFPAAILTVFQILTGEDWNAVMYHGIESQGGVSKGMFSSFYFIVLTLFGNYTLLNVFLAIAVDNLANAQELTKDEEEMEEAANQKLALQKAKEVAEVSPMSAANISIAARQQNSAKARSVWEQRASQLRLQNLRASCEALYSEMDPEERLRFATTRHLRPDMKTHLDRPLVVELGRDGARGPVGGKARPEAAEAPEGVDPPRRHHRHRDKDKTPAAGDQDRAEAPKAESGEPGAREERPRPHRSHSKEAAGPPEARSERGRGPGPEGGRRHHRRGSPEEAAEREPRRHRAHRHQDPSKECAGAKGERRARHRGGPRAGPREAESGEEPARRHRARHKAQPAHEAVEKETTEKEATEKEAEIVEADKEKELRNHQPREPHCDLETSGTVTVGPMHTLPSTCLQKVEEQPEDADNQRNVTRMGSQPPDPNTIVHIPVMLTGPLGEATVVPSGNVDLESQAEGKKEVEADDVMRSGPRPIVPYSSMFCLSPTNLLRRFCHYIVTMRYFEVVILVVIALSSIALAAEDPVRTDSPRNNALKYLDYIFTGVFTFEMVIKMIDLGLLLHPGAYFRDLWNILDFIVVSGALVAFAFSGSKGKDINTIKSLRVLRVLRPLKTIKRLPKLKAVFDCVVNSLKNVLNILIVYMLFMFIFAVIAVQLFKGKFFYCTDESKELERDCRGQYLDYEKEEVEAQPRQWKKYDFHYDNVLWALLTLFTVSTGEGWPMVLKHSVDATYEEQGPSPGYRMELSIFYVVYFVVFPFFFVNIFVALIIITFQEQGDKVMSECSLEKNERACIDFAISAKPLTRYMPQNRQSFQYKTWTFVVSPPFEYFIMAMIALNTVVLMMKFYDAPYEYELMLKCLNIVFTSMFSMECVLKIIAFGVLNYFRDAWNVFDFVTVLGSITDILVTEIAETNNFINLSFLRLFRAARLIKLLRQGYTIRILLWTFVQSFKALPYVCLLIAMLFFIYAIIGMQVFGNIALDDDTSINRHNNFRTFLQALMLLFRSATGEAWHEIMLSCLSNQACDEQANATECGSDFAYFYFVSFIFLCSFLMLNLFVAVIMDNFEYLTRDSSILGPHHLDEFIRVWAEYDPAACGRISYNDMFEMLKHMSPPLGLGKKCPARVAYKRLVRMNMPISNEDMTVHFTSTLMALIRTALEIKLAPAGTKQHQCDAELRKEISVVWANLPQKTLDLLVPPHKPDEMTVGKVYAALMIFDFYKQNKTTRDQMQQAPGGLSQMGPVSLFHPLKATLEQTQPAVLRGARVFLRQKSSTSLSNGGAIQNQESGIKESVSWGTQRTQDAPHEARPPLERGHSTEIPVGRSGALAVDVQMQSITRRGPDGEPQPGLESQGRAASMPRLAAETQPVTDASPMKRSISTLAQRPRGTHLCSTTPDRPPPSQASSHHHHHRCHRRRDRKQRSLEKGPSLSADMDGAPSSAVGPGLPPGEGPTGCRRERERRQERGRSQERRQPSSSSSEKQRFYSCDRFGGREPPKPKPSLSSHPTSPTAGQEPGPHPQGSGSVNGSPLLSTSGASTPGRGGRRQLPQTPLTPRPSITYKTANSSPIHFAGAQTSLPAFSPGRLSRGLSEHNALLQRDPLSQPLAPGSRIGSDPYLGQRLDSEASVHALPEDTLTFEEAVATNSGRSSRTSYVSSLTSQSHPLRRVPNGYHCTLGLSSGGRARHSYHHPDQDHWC
Chain of N-type calcium channel subunits (α1B, α2δ, and β3a) (P54289 25-1103 partner): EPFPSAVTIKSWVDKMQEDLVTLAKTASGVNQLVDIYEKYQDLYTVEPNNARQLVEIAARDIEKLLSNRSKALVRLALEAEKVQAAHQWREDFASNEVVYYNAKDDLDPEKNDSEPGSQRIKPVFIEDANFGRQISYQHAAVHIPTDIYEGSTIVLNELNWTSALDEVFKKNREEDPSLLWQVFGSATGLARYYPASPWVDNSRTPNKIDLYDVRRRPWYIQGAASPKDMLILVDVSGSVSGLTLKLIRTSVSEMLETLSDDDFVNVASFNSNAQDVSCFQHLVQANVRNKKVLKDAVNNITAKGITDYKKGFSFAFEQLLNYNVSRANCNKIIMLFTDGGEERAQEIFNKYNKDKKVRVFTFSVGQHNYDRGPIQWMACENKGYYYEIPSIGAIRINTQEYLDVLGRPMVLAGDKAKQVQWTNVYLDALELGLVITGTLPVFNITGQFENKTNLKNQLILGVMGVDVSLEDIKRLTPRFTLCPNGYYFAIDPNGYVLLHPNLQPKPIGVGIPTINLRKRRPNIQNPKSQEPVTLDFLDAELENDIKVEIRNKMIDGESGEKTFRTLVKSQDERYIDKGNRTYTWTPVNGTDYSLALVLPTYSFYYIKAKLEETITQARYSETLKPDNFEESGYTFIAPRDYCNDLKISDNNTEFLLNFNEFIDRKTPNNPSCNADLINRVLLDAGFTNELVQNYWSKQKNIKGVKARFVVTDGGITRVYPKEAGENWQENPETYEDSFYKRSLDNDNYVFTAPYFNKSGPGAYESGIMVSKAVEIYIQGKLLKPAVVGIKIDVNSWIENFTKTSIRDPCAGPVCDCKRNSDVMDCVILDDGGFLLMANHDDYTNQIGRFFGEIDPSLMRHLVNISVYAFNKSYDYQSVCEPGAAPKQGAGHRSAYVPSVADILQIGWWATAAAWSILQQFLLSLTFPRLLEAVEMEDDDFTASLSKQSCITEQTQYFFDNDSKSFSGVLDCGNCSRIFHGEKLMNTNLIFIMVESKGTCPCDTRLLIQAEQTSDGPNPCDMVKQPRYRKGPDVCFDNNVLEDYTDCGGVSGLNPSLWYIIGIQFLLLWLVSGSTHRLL
Chain of N-type calcium channel subunits (α1B, α2δ, and β3a) (P54284 whole entry partner): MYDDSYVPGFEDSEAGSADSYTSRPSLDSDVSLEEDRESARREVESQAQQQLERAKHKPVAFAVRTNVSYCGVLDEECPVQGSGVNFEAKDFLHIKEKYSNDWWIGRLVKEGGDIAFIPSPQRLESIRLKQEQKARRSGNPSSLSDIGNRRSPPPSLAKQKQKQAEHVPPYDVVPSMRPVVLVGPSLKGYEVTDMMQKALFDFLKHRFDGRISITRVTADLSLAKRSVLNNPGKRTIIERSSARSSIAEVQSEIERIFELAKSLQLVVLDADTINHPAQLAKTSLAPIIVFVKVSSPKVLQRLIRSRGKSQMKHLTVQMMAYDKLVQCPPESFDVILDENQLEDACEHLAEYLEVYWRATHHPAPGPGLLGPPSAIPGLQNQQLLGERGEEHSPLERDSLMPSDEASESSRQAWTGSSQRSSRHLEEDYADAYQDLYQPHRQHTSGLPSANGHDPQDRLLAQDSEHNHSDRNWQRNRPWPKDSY
Summary of the method: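 Percent block taken as current amplitude ratio with versus without compound, applied in rising doses; IC50 fitted where one cell received multiple doses. Protocol: 50 ms pulses to +20 mV at 0.067 Hz from […] or −90 mV holding; P/n leak subtraction, no junction-potential correction; manual and PatchXpress recordings.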

T-type calcium channel [4] = target: T-type calcium channel (Homo sapiens, UniProt O43497); experiment: T-type channel blocking, FLIPR data (Table 6); settings: CAv3.1
Text: (§2) Another method, high-throughput spectrophotometric assay, utilizes loading of the cell lines with a fluorescent dye sensitive to intracellular calcium concentration and subsequent examination of the effects of compounds on the ability of depolarization by potassium chloride or other means to alter intracellular calcium levels.

T-type calcium channel [5] = target: T-type calcium channel (Homo sapiens, UniProt O95180); experiment: T-type channel blocking, FLIPR data (Table 6)
Text: as §2

Human Cav 2.2 channels = Human Cav 2.2 channels (Homo sapiens, UniProt Q00975); experiment: Fluorescent assay for CaV2.2 channels using potassium depolarization (VIPR/FLIPR); settings: FLIPR data
Chain of Human Cav 2.2 channels (Q00975 whole entry): as the sequence (Q00975 whole entry) above
Chain of Human Cav 2.2 channels (P54289 25-1103 partner): as the sequence (P54289 25-1103 partner) above
Chain of Human Cav 2.2 channels (P54284 whole entry partner): as the sequence (P54284 whole entry partner) above
Text: Human Cav 2.2 channels were stably expressed in HEK293 cells along with alpha2-delta and beta subunits of voltage-gated calcium channels. An inwardly rectifying potassium channel (Kir2.3) was also expressed in these cells to allow more precise control of the cell membrane potential by extracellular potassium concentration. At low bath potassium concentration, the membrane potential is relatively negative, and is depolarized as the bath potassium concentration is raised. In this way, the bath potassium concentration can be used to regulate the voltage-dependent conformations of the channels. […] After the incubation period, Cav2.2 channel opening is triggered by addition of higher concentration of potassium (70 mM final concentration) to further depolarize the cell. The degree of state-dependent block can be estimated from the inhibitory potency of compounds after incubation in different potassium concentrations.
Calcium influx through Cav 2.2 channels is determined using a calcium sensitive fluorescent dye in combination with a fluorescent plate reader. Fluorescent changes were measured with either a VIPR (Aurora Instruments) or FLIPR (Molecular Devices) plate reader.
1. Seed cells in Poly-D-Lysine Coated 96 or 384-well plate and keep in a 3rC-IO % C02 incubator overnight.
2. Remove media, wash cells with 0.2 mL (96-well plate) or 0.05 mL (384-well plate) Dulbecco's Phosphate Buffered Saline (D-PBS) with calcium & magnesium (Invitrogen; 14040).
3. Add 0.1 mL (96-well plate) or 0.05 mL (384-well plate) of 4˜M fluor-4 (Molecular Probes; F-14202) and 0.02% Pluronic acid (Molecular Probes; P-3(00) prepared in D-PBS with calcium & magnesium (Invitrogen; 14040) supplemented with 10 mM Glucose & 10 mM HepeslNaOH; pH 7.4.
4. Incubate in the dark at 25° C. for 60-70 min.
5. Remove dye, wash cells with 0.1 mL (96-well plate) or 0.06 mL (384-well plate) of 4, 12, 25, or 30 mM Potassium Pre-polarization Buffer (PPB).
6. Add 0.1 mL (96-well plate) or 0.03 mL (384-well plate) of 4, 12, 25, 30 mM PPB with or without test compound.
7. Incubate in the dark at 25° C. for 30 min
8. Read cell plate on VIPR instrument, Excitation=480 nm, Emission=535 nm.
9. With VIPR continuously reading, add 0.1 mL (96-well plate) or 0.03 mL (384-well plate) of Depolarization Buffer (DB), which is 2× the final assay concentration, to the cell plate.

CAv1.2 = CAv1.2 (Homo sapiens, UniProt Q13936); experiment: FLIPR data, CAv1.2 channel blocking (Table 6); settings: for CAv1.2 IC50 Ratio closed/inact.: ratio closed/inactivated IC50
[6] = CAv3.2, closed state, read-out: CAv3.2 IC50 Closed
[7] = CAv3.2, inactivated state, read-out: CAv3.2 IC50 Inact.
[8] = CAv3.2, ratio closed/inactivated IC50
[9] = closed state, read-out: CAv2.2 IC50 Closed
[10] = inactivated state, read-out: CAv2.2 IC50 Inact.
[11] = closed state, read-out: CAv1.2 IC50 Closed
[12] = inactivated state, read-out: CAv1.2 IC50 Inact.

Compound	IC50 [1] [µM]	IC50 [2] [µM]	IC50 [3] [nM]	IC50 (T-type calcium channel [4]) [µM]	IC50 (T-type calcium channel [5]; [6]) [µM]	IC50 (T-type calcium channel [5]; [7]) [µM]	CAv3.2 IC50 Ratio closed/inact. (T-type calcium channel [5]; [8])	IC50 (Human Cav 2.2 channels; [9]) [µM]	IC50 (Human Cav 2.2 channels; [10]) [µM]	CAv2.2 IC50 Ratio closed/inact. (Human Cav 2.2 channels; ratio closed/inactivated IC50)	IC50 (CAv1.2; [11]) [µM]	IC50 (CAv1.2; [12]) [µM]	CAv1.2 IC50 Ratio closed/inact. (CAv1.2)	CAv3.2 IC50 Ratio closed/inact. (T-type calcium channel [5]; CAv3.2, ratio closed/inact.)	CAv2.2 IC50 Ratio closed/inact. (Human Cav 2.2 channels; ratio closed/inact.)
O=S(=O)(CCC(F)(F)F)NC[C@H]1C[C@H](S(=O)(=O)c2cccc(C(F)(F)F)c2)C1 [Compound 425, 3,3,3-trifluoro-N-(((1R,3R)-3-(3-(trifluoromethyl)phenylsulfonyl)cyclobutyl)methyl)propane-1-sulfonamide]	1.55	1.07	3760												
O=S(=O)(NC[C@H]1C[C@H](S(=O)(=O)c2cccc(C(F)(F)F)c2)C1)c1cccc(C(F)(F)F)c1 [Compound 427, 3-(trifluoromethyl)-N-(((1R,3R)-3-(3-(trifluoromethyl)phenylsulfonyl)cyclobutyl)methyl)benzenesulfonamide]	3.82	0.88	920												
O=C(N[C@H]1C[C@H](S(=O)(=O)c2cccc(C(F)(F)F)c2)C1)c1ccc(Cl)c(F)c1 [Compound 429, 4-chloro-3-fluoro-N-((1S,3S)-3-(3-(trifluoromethyl)phenylsulfonyl)cyclobutyl)benzamide]	> 10	8.37	770												
O=C(CN[C@H]1C[C@@H](S(=O)(=O)c2cccc(C(F)(F)F)c2)C1)NC1CCC(F)(F)CC1 [Compound 431, N-(4,4-difluorocyclohexyl)-2-((1S,3S)-3-(3-(trifluoromethyl)phenylsulfonyl)cyclobutylamino) acetamide]	0.92	0.24	1840												
CC(C)S(=O)(=O)c1cc(C(F)(F)F)cnc1C(=O)N[C@H]1C[C@H](S(=O)(=O)c2cccc(C(F)(F)F)c2)C1 [Compound 432, 3-(isopropylsulfonyl)-5-(trifluoromethyl)-N-((1R,3R)-3-(3-(trifluoromethyl)phenylsulfonyl)cyclobutyl) picolinamide]	1.29	0.33	810												
CC([C@H]1C[C@H](NC(=O)c2ccc(F)c(Cl)c2)C1)S(=O)(=O)c1cccc(C(F)(F)F)c1 (stereo partly drawn) [Compound 434, 3-chloro-4-fluoro-N-((1R,3R)-3-( (R)-1-(3-(trifluoromethyl)phenylsulfonyl)ethyl)cyclobutyl)benzamide]	1.13	0.68	210												
O=C(NC[C@H]1C[C@H](S(=O)(=O)c2cccc(C(F)(F)F)c2)C1)c1ccc(C(F)(F)F)nc1 [Compound 571]				≥ 10	≥ 10	10	1	10	0.42	23.8	≥ 10	≥ 10			
O=C(NC[C@H]1C[C@H](S(=O)(=O)c2cccc(C(F)(F)F)c2)C1)c1ccc(C(F)(F)F)cc1 [Compound 572]				8.16	2.6	1.68	1.5	3.54	0.27	13.1	7.35	3.01	2.4		
CC(C)([C@H]1C[C@@H](NC(=O)c2ccc(C(F)(F)F)cn2)C1)S(=O)(=O)c1cccc(C(F)(F)F)c1 [Compound 575]				≥ 10	5.72	4.45	1.3	3.21	0.28	11.5	7.52	5.36	1.4		
CC(C)([C@H]1C[C@@H](NC(=O)c2ccc(C(F)(F)F)nc2)C1)S(=O)(=O)c1cccc(C(F)(F)F)c1 [Compound 576]				≥ 10	≥ 10	9.9	1	8.56	0.44	19.5	≥ 10	9.62	1		
CC(C)([C@H]1C[C@@H](NC(=O)c2ccc(Cl)cn2)C1)S(=O)(=O)c1cccc(C(F)(F)F)c1 [Compound 578]				≥ 10	7.71	5.3	1.5	3.46	0.46	7.5	9.07	8.38	1.1		
CC(C)([C@H]1C[C@@H](NC(=O)c2cnc(C(F)(F)F)nc2)C1)S(=O)(=O)c1cccc(C(F)(F)F)c1 [Compound 579]				≥ 10	≥ 10	10	1	10	0.66	15.2	≥ 10	9.95	1		
CC(C)([C@H]1C[C@@H](NC(=O)c2ncc(C(F)(F)F)cc2S(C)(=O)=O)C1)S(=O)(=O)c1cc(F)cc(C(F)(F)F)c1 [Compound 584]				≥ 10				10	1.7	5.9	≥ 10	≥ 10			
CC(C)([C@H]1C[C@H](NC(=O)c2ncc(C(F)(F)F)cc2S(C)(=O)=O)C1)S(=O)(=O)c1cc(F)cc(C(F)(F)F)c1 [Compound 591]				≥ 10				10	1.15	8.7		≥ 10			
CC(C)([C@H]1C[C@H](NC(=O)c2cc(C(F)(F)F)n[nH]2)C1)S(=O)(=O)c1cc(F)cc(C(F)(F)F)c1 [Compound 594]				≥ 10	9.23	2.35		6.08	0.52	11.7					
N[C@H]1CCCCC1C(=O)NC[C@H]1C[C@H](S(=O)(=O)c2cc(F)cc(C(F)(F)F)c2)C1 (stereo partly drawn) [Compound 711]				≥ 10		10		10	5.16	1.9					
NC1(CC(=O)N2CC(CS(=O)(=O)c3cc(F)cc(C(F)(F)F)c3)C2)CCCCC1 [Compound 749]				≥ 10	≥ 10	10			≥ 10					1	
CC(C)([C@H]1C[C@@H](CNc2ccc(Cl)c(F)c2)C1)S(=O)(=O)c1cccc(C(F)(F)F)c1 [Compound 754]				≥ 10		10			7.22						1.4
N-tert-butyl-2-((1S,4S)-4-((3- (trifluoromethyl)phenylsulfonyl) methyl)cyclohexylamino)acetamide [Compound 144]	1.35	0.67	1250												
